The results in this text go back to ChEMBL document CHEMBL1126835, “QSAR's from similarity matrices. Technique validation and application in the comparison of different similarity evaluation methods” (J Med Chem, 1993).

The first data set has as its target T1, Monoamine oxidase (Homo sapiens, UniProt P21397+P27338).
T1 sequence (P21397 whole entry): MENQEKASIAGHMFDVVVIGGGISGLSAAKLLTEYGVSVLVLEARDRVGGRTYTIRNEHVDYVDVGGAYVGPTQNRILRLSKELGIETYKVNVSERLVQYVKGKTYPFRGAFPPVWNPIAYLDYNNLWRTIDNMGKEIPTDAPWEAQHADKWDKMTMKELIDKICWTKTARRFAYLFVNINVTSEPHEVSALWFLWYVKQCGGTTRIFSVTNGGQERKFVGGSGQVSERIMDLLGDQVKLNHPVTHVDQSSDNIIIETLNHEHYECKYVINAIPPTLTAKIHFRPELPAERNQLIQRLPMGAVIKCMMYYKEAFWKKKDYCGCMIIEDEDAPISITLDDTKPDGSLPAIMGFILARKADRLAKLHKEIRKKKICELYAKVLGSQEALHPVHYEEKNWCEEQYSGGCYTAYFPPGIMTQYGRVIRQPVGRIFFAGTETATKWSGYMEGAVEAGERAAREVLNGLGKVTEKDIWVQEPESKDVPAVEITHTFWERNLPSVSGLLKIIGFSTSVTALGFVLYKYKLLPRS
T1 sequence (P27338 whole entry): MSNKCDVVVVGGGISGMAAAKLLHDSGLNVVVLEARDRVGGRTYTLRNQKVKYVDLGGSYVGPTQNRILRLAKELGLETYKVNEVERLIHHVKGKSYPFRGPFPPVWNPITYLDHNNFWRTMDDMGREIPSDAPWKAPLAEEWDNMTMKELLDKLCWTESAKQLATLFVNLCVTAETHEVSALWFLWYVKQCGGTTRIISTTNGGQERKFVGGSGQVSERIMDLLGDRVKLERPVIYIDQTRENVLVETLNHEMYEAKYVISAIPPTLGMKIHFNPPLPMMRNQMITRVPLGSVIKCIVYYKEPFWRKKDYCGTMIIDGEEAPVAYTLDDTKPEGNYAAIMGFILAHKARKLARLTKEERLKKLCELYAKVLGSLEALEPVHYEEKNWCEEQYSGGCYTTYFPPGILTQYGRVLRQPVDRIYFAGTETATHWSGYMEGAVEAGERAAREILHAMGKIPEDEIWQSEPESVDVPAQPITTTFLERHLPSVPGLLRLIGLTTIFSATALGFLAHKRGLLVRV
Briefly: Binding affinity towards monoaminooxidase Relative to MPTP. In kind it is protein assay.
`Cc1ccc(C2=CCN(C)CC2)cc1` displayed a Relative activity of 2. On the same count and under the same terms, for `CN1CC=C(c2ccccc2C(F)(F)F)CC1` the value was 3; for `CN1CC=C(c2cccc(F)c2)CC1`, 3. On the same count and under the same terms, for `CN1CC=C(c2cccs2)CC1` the value was 2; for `C1=C(c2ccccc2)CCNC1`, 3. The compound `N#CCCC(=O)N1CC=C(c2ccccc2)CC1` showed a Relative activity of 1. Still for that read-out and setting: for `CC1CN(C)CC=C1c1ccccc1` (stereo not drawn) the value was 2; for `CN1CC=C(c2cccc(Cl)c2)CC1`, 3. The same measure, in the same setting: for `C/C(=C\CN(C)C)c1ccccc1` the value was 3; for `C=CCN1CC=C(c2ccccc2)CC1`, 1; for `CN1CC=C(Cc2ccccc2)CC1`, 3. `CCc1ccccc1C1=CCN(C)CC1` gave a Relative activity of 3. Regarding `CCCN1CC=C(c2ccccc2)CC1`, the Relative activity is on record as 1. In the case of `CN1CC=C(C(C)(C)C)CC1`, the Relative activity was 2. In turn, `CN1CCC(c2ccccc2)CC1` yielded a Relative activity of 1. Same read-out and setting: with `CCCCN1CC=C(c2ccccc2)CC1` the figure was 1; with `CCC1=CCN(C)CC1`, 2; with `Fc1ccc(C2=CCNCC2)cc1`, 2. Same read-out and setting: with `C1=C(c2ccccc2)CCN(Cc2ccccc2)C1` the figure was 1.

With `COc1cccc(C2=CCN(C)CC2)c1`, the Relative activity came to 2. The same measure, in the same setting: for `OCCN1CC=C(c2ccccc2)CC1` the value was 2; for `CCN1CC=CCC1`, 2. The same measure, in the same setting: with `CN1CC=C(c2ccccc2F)CC1` the figure was 3; with `C1=C(c2ccccc2)CCN(CC2CC2)C1`, 1; with `CN1CC=C(c2ccccc2Cl)CC1`, 3. Same read-out and setting: with `Cc1cccc(C2=CCN(C)CC2)c1` the figure was 3; with `Clc1ccc(C2=CCNCC2)cc1`, 2. With `CC1=C(c2ccccc2)CCN(C)C1`, the Relative activity is 2. The same measure, in the same setting: for `CN1CC=C(C2CCCCC2)CC1` the value was 3; for `CN1CC=C(c2ccccc2)CC1`, 3.

In turn, `CN1CC=C(c2cccn2C)CC1` came in with a Relative activity of 3. Still for that read-out and setting: for `CN1CC=C(c2cccc(Br)c2)CC1` the value was 3; for `CN1CCc2c([nH]c3ccccc23)C1`, 2.

On to `CN1CC=C(c2ccc(Cl)cc2)CC1`, for which the Relative activity is on record as 2.

Another data set is filed under the species Gallus gallus. Briefly: Tested for anti-coccidial activity. The format is functional.
Turning to `O=c1cnn(-c2cc(Cl)c(Cc3ccc(Cl)cc3)c(Cl)c2)c(=O)[nH]1`, the “Log 1/MEC” value was 3.18. Same read-out and setting: with `O=c1cnn(-c2ccc(Sc3ccc(Cl)cc3)c(Cl)c2)c(=O)[nH]1` the figure was 2.26; with `Cc1cc(-n2ncc(=O)[nH]c2=O)cc(C)c1S(=O)(=O)N1CCOCC1`, 1.39; with `Cc1cc(-n2ncc(=O)[nH]c2=O)ccc1Oc1ccc(Cl)cc1Cl`, 1.69.

In the case of `O=c1cnn(-c2cccc(C(F)(F)F)c2)c(=O)[nH]1`, the “Log 1/MEC” value is given as 0.93. Still for that read-out and setting: with `Cc1cc(Cl)cc(-n2ncc(=O)[nH]c2=O)c1` the figure was 1.2. Turning to `O=C(c1ccc(Cl)cc1)c1c(Cl)cc(-n2ncc(=O)[nH]c2=O)cc1Cl`, the “Log 1/MEC” value was 2.9. The same measure, in the same setting: with `COc1cc(-n2ncc(=O)[nH]c2=O)cc(OC)c1OC` the figure was -0.55; with `Cc1cc(-n2ncc(=O)[nH]c2=O)cc(Cl)c1Oc1ccc(C(C)O)cc1` (stereo not drawn), 2.27. The same measure, in the same setting: for `Cc1cc(-n2ncc(=O)[nH]c2=O)cc(Cl)c1Sc1ccc(Cl)cc1` the value was 3.28; for `N#Cc1cccc(-n2ncc(=O)[nH]c2=O)c1`, 0.85; for `O=c1cnn(-c2cc(Cl)c(S(=O)(=O)c3ccc(Cl)cc3)c(Cl)c2)c(=O)[nH]1`, 2.94. The same measure, in the same setting: with `CSc1ccc(Oc2c(C)cc(-n3ncc(=O)[nH]c3=O)cc2C)cc1` the figure was 2.25; with `Cc1cc(-n2ncc(=O)[nH]c2=O)ccc1Oc1ccc(Cl)cc1`, 0.74. In the case of `O=c1cnn(-c2ccc(S(=O)(=O)N3CCOCC3)c(Cl)c2)c(=O)[nH]1`, the “Log 1/MEC” value is 1.09. On the same count and under the same terms, with `CSc1ccc(Oc2ccc(-n3ncc(=O)[nH]c3=O)cc2C)cc1` the figure was 2.23; with `Cc1cc(-n2ncc(=O)[nH]c2=O)cc(C)c1S(=O)(=O)c1ccc(Cl)cc1`, 2.59; with `O=c1cnn(-c2ccc(Oc3ccc(I)cc3)c(Cl)c2)c(=O)[nH]1`, 1.77. Still for that read-out and setting: with `Cc1cc(-n2ncc(=O)[nH]c2=O)ccc1Oc1ccc(Br)cc1` the figure was 1.7; with `Cc1cc(-n2ncc(=O)[nH]c2=O)cc(Cl)c1Oc1ccc(S(=O)(=O)NC2CC2)cc1Cl`, 1.51; with `O=c1cnn(-c2ccc(C(O)c3ccc(Cl)cc3)c(Cl)c2)c(=O)[nH]1` (stereo not drawn), 2.26.

With `COc1cc(OC)cc(-n2ncc(=O)[nH]c2=O)c1`, the “Log 1/MEC” value is -0.3. The same measure, in the same setting: with `Cc1cc(-n2ncc(=O)[nH]c2=O)cc(C)c1Sc1ccc(Cl)cc1` [TIAZURIL] the figure was 2.86. Still for that read-out and setting: for `O=c1cnn(-c2ccccc2)c(=O)[nH]1` the value was -0.42.

Turning to `Cc1cc(-n2ncc(=O)[nH]c2=O)ccc1C(O)c1ccccc1` (stereo not drawn), the “Log 1/MEC” value is reported as 1.01. On the same count and under the same terms, for `CS(=O)(=O)c1ccc(-n2ncc(=O)[nH]c2=O)cc1` the value was -0.27; for `O=c1cnn(-c2cccc(Cl)c2)c(=O)[nH]1`, 0.25; for `O=c1cnn(-c2ccc(S(=O)(=O)c3ccccc3)cc2)c(=O)[nH]1`, 1.04. The same measure, in the same setting: for `O=c1cnn(-c2ccc(S(=O)(=O)c3ccc(Cl)cc3)cc2)c(=O)[nH]1` the value was 1.96.

As for `O=c1cnn(-c2cc(Cl)c(Sc3ccc(Cl)cc3)c(Cl)c2)c(=O)[nH]1`, the “Log 1/MEC” value is 3.3.

As to `O=c1cnn(-c2ccc(Oc3ccc(Cl)cc3Cl)c(Cl)c2)c(=O)[nH]1`, the “Log 1/MEC” value came to 1.71. The same measure, in the same setting: for `Cc1cc(-n2ncc(=O)[nH]c2=O)cc(Cl)c1Oc1ccc(Cl)cc1` the value was 1.98. As for `Cc1cc(C)cc(-n2ncc(=O)[nH]c2=O)c1`, the “Log 1/MEC” value stood at 0.86. On the same count and under the same terms, for `O=c1cnn(-c2cc(Cl)c(S(=O)(=O)N3CCOCC3)c(Cl)c2)c(=O)[nH]1` the value was 1.13. `CC(=O)c1ccc(Sc2c(C)cc(-n3ncc(=O)[nH]c3=O)cc2Cl)cc1`: the “Log 1/MEC” value is on record as 3.19. On the same count and under the same terms, for `O=c1cnn(-c2ccc(Br)c(C(F)(F)F)c2)c(=O)[nH]1` the value was 1.35; for `Cc1cc(-n2ncc(=O)[nH]c2=O)cc(C)c1[S+]([O-])c1ccc(Cl)cc1` (stereo not drawn), 2.58; for `CCN(C)S(=O)(=O)c1ccc(Oc2c(C)cc(-n3ncc(=O)[nH]c3=O)cc2Cl)c(Cl)c1`, 2.11. Turning to `O=c1cnn(-c2cc(Cl)cc(Cl)c2)c(=O)[nH]1`, the “Log 1/MEC” value came out at 1.81. As for `O=c1cnn(-c2ccc(Cc3ccc(Cl)cc3)c(Cl)c2)c(=O)[nH]1`, the “Log 1/MEC” value was 1.64. Still for that read-out and setting: for `CSc1ccc(Oc2c(C)cc(-n3ncc(=O)[nH]c3=O)cc2C)cc1C` the value was 2.27; for `CC(=O)c1ccc(Oc2c(C)cc(-n3ncc(=O)[nH]c3=O)cc2Cl)cc1`, 2.27. On the same count and under the same terms, for `CSc1ccc(Oc2ccc(-n3ncc(=O)[nH]c3=O)cc2Cl)cc1` the value was 1.98.

Consider `COc1c(Cl)cc(-n2ncc(=O)[nH]c2=O)cc1Cl`, for which the “Log 1/MEC” value is 0.06. On the same count and under the same terms, for `N#CC(c1ccc(Cl)cc1)c1c(Cl)cc(-n2ncc(=O)[nH]c2=O)cc1Cl` (stereo not drawn) [DICLAZURIL] the value was 3.61; for `O=c1cnn(-c2ccc(Oc3ccc4cc(Br)ccc4c3)c(Cl)c2)c(=O)[nH]1`, 1.77; for `O=c1cnn(-c2ccc([N+](=O)[O-])cc2)c(=O)[nH]1`, -0.03. The same measure, in the same setting: for `O=c1cnn(-c2ccc(F)c(C(F)(F)F)c2)c(=O)[nH]1` the value was 1.26. Same read-out and setting: with `Cc1cc(-n2ncc(=O)[nH]c2=O)ccc1Oc1ccc(S(C)(=O)=O)cc1` the figure was 1.97. Regarding `O=c1cnn(-c2ccc(S(=O)(=O)c3ccc(Br)cc3)cc2)c(=O)[nH]1`, the “Log 1/MEC” value is given as 1.71.

Turning to `O=c1cnn(-c2ccc(Oc3ccccc3)cc2)c(=O)[nH]1`, the “Log 1/MEC” value was -0.25. Still for that read-out and setting: for `O=c1cnn(-c2ccc(Sc3ccc4ccccc4c3)c(Cl)c2)c(=O)[nH]1` the value was 0.48; for `Cc1cc(-n2ncc(=O)[nH]c2=O)cc(Cl)c1S(=O)(=O)c1ccc(Cl)cc1`, 1.71; for `Cc1cc(-n2ncc(=O)[nH]c2=O)cc(C)c1C(=O)c1ccc(Cl)cc1`, 1.38.
